Assay [1] concerns FOXC2-HMLER cells. The assay is described as follows: Multinucleation of FOXC2-HMLER cells. Type of assay: cell-based, human. Particulars: 250-500 nM, 24 hours.
In assay [2] the target is T1, VIM (Homo sapiens, UniProt P08670).
T1 construct: endogenous in cells; host or cells: FOXC2-HMLER
The assay is described as follows: Immunofluorescent analysis of VIM filamentous architecture in HUVECs. Particulars: one-hour treatment. The class given is cell-based.

The subject of assay [3] is FOXC2-HMLER cells. The assay is described as follows: Confocal imaging of thymidine synced FOXC2-HMLER cells at metaphase. Type of assay: cell-based, human. The source says: Because Compound 1 induces a hyper-phosphorylated VIM phenotype, we sought to determine if Compound 1's engagement of VIM might interfere at an alternative stage of mitosis. We therefore performed time course confocal imaging studies of Compound 1 treated FOXC2-HMLER cells after their release from thymidine blocking-based cell cycle synchronization.
Compound 1 treatment also disrupted the ability of β-tubulin to faithfully form the fine spindle microtubules of the mitotic spindle, instead resulting in a compressed phenotype with radiating projections connecting unaligned chromosomes. To assess the uniqueness of this phenotype, we evaluated the metaphase phenotypes of other chemical inhibitors which have shown to alter mitotic progression. These included inhibitors of centromere-associated protein E (CENP-E, also called kinesin-7, GSK92395), kinesin spindle protein (KSP, also called Eg5, Ispinesib), polo like kinases (PLK1/2/3, BI2536), and aurora kinases (AURKA/B/C, VX-680).

For assay [4], the target named is T1, VIM. The assay is described as follows: Western blotting / immunofluorescence of VIM protein status in FOXC2-HMLER cells. The class given is cell-based. The settings on record: FOXC2-HMLER cells, Western blotting. Here is the method:
Western blotting was performed essentially as described previously (M. J. Bollong et al. ACS Chem. Biol. 10 (2015) 2193-2198). Cells were collected by brief trypsinization and centrifugation at 500 g for 5 minutes. Cells were lysed by the addition of RIPA buffer with protease and phosphatase inhibitors (Roche). Lysates were incubated on ice for 30 minutes before eliminating insoluble protein content by centrifugation at 12,000 g for 5 minutes at 4° C. Protein concentrations were determined from absorbance values obtained by a Nanodrop instrument. Equal amounts of protein were then mixed with 2× loading buffer (100 mM TRIS-HCl, 1% SDS, 10% glycerol, 0.1% bromophenol blue 10%-mercaptoethanol) and exposed to 95° C. for 5 minutes. Protein was separated by SDS-PAGE using 4-12% Bis-Tris Gels (Invitrogen) and then transferred to PVDF membranes (Invitrogen) using semi-dry transfer. Membranes were blocked for 1 hour at room temperature in 5% non-fat dry milk in TBST (Tris buffered saline with 0.1% Tween 20). Membranes were incubated overnight with primary antibodies in blocking buffer overnight at the dilutions ranging from 1:500 to 1:2000. After 3 washes with TBST, membranes were then exposed to HRP-conjugated secondary antibodies (1:5000 in blocking buffer, Sigma) for one hour followed by one hour of additional washing with TBST. Relative protein content was visualized using film and SuperSignal West Dura Substrate. For VIM degradation blots, 20-60 μg of protein content was loaded per gel lane and the anti-VIM antibody V9 (ab8069) was used to blot for VIM protein content. Phospho-protein blots were performed as above with the exception that primary antibodies were incubated in 5% bovine serum albumin in TBST instead of milk.
We performed Western blotting analysis of FOXC2-HMLER cells treated for 24 hours with Compound 1 with commercially available antibodies targeting specific phosphorylated VIM species (P-S39, P-S56, P-S83).
In contrast, only a small fraction of cells undergoing mitosis stained positive for P-S56-VIM in DMSO-treated controls, consistent with previous reports identifying phosphorylation at S56 as a modification catalyzed by cyclin dependent kinase 1 (CDK1; FIG. 6) (T. Yamaguchi, T. et al., J. Cell Biol. 171 (2005) 431-436.
Background: Immunoblotting shows a protein as a band on a membrane.

T1 sequence (P08670 whole entry): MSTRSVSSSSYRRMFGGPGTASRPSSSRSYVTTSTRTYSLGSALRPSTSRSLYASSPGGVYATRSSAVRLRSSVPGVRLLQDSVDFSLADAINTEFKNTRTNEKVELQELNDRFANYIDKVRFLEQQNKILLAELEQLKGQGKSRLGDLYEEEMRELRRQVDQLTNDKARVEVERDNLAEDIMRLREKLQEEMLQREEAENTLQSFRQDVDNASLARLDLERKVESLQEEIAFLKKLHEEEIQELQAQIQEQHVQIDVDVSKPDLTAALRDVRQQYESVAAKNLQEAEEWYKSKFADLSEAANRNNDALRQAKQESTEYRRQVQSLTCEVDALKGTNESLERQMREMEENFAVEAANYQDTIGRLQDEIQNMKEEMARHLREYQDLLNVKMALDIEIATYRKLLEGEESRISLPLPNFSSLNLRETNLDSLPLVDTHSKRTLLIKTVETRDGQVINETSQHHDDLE

Regarding `CC1=C(CO)C(=O)O[C@@H]([C@@H](C)[C@H]2CC[C@H]3[C@@H]4C[C@H]5O[C@]56[C@@H](O)C=CC(=O)[C@]6(C)[C@H]4CC[C@]23C)C1` [WIF-A, Withaferin A, reference compound], the “multinucleated FOXC2-HMLER cells” value in the assay with FOXC2-HMLER cells [1] is listed as “significant increase”. The “VIM filamentous architecture in HUVECs” value on VIM [2] is recorded as “promoted the destruction of fine VIM-containing filamentous structures”. In addition, the “chromosome alignment to the metaphase plate” value with FOXC2-HMLER cells [3] is given as “unaligned chromosomes during metaphase”. In addition, on VIM [4], the “lower molecular weight VIM degradation products” value is “dose-dependent accumulation”.

The values above are taken from US11759461B2, “Small molecule inhibitors of cancer stem cells and mesenchymal cancer types” (The Scripps Research Institute, priority 2017, dated 2023).
